Values quoted from earlier work in PubChem BioAssay AID1259409 (Chemical Carcinogenesis Research Information System (CCRIS), 2018).

System: rodent chemically induced tumor inhibition, incidence and multiplicity
Test: CCRIS tumor inhibitor studies
Conditions: Dose [Inhibitor]: 0, Route [Inhibitor]: ORAL, Species: RAT, Strain/Sex: F344/MALE, Promoter: NONE USED

O=C(O)c1ccc(O)c(O)c1
tumour outcome (control, treated, inhibition, significance) (Carcinogen: AZOXYMETHANE, 25843-45-2, 1000 PPM IN DIET FOR 28 WK BEGINNING 1 WK POST CARCINOGEN TREATMENT (STUDY DURATION: 32 WK), Target Tissue: Type of Lesion: LARGE INTESTINE: ADENOMA, Dose [Carcinogen]: 15 MG/KG BW 1/WK FOR 3 WK): 2/20 (10%), 2/23 (9%), 10%, not significant
tumour outcome (control, treated, inhibition, significance) (Carcinogen: AZOXYMETHANE, 25843-45-2, 1000 PPM IN DIET FOR 28 WK BEGINNING 1 WK POST CARCINOGEN TREATMENT (STUDY DURATION: 32 WK), Target Tissue: Type of Lesion: SMALL INTESTINE: ADENOCARCINOMA, Dose [Carcinogen]: 15 MG/KG BW 1/WK FOR 3 WK): 6/20 (30%), 2/23 (9%), 70%, not significant
tumour outcome (control, treated, inhibition, significance) (Carcinogen: AZOXYMETHANE, 25843-45-2, 1000 PPM IN DIET FOR 28 WK BEGINNING 1 WK POST CARCINOGEN TREATMENT (STUDY DURATION: 32 WK), Target Tissue: Type of Lesion: SMALL INTESTINE: ADENOMA, Dose [Carcinogen]: 15 MG/KG BW 1/WK FOR 3 WK): 1/20 (5%), 1/23 (4%), 20%, not significant
tumour outcome (control, treated, inhibition, significance) (Carcinogen: DIETHYLNITROSAMINE, 55-18-5, 500 PPM IN DIET BEGINNING 1 WK PRIOR TO CARCINOGEN AND CONTINUING FOR 7 WK FOLLOWED BY BASAL DIET FOR 30 WK (STUDY DU, Target Tissue: Type of Lesion: LIVER: ADENOMA OR CARCINOMA, Dose [Carcinogen]: 40 PPM IN DRINKING WATER FOR 5 WK BEGINNING AT 7 WK OF AGE): 18/18 (100%), 12/17 (71%), 29%, p=0.02
tumour outcome (control, treated, inhibition, significance) (Carcinogen: DIETHYLNITROSAMINE, 55-18-5, 500 PPM IN DIET FOR 7 WK BEGINNING 1 WK PRIOR TO CARCINOGEN TREATMENT (STUDY DURATION: 37 WK), Target Tissue: Type of Lesion: LIVER: ADENOMA, Dose [Carcinogen]: 40 PPM IN DRINKING WATER FOR 5 WK): 89%, 59%, 34%, not significant
tumour outcome (control, treated, inhibition, significance) (Carcinogen: DIETHYLNITROSAMINE, 55-18-5, 500 PPM IN DIET FOR 7 WK BEGINNING 1 WK PRIOR TO CARCINOGEN TREATMENT (STUDY DURATION: 37 WK), Target Tissue: Type of Lesion: LIVER: CARCINOMA, Dose [Carcinogen]: 40 PPM IN DRINKING WATER FOR 5 WK): 89%, 71%, 20%, not significant
tumour outcome (control, treated, inhibition, significance) (Carcinogen: DIETHYLNITROSAMINE, 55-18-5, 500 PPM IN DIET FOR 30 WK BEGINNING 1 WK POST CARCINOGEN TREATMENT (STUDY DURATION: 37 WK), Target Tissue: Type of Lesion: LIVER: ADENOMA, Dose [Carcinogen]: 40 PPM IN DRINKING WATER FOR 5 WK): 89%, 60%, 33%, p<0.05
tumour outcome (control, treated, inhibition, significance) (Carcinogen: DIETHYLNITROSAMINE, 55-18-5, 1000 PPM IN DIET FOR 7 WK BEGINNING 1 WK PRIOR TO CARCINOGEN TREATMENT (STUDY DURATION: 37 WK), Target Tissue: Type of Lesion: LIVER: ADENOMA, Dose [Carcinogen]: 40 PPM IN DRINKING WATER FOR 5 WK): 89%, 37%, 58%, p<0.05
tumour outcome (control, treated, inhibition, significance) (Carcinogen: DIETHYLNITROSAMINE, 55-18-5, 1000 PPM IN DIET FOR 30 WK BEGINNING 1 WK POST CARCINOGEN TREATMENT (STUDY DURATION: 37 WK), Target Tissue: Type of Lesion: LIVER: ADENOMA, Dose [Carcinogen]: 40 PPM IN DRINKING WATER FOR 5 WK): 89%, 68%, 24%, not significant
tumour outcome (control, treated, inhibition, significance) (Carcinogen: DIETHYLNITROSAMINE, 55-18-5, 1000 PPM IN DIET FOR 30 WK BEGINNING 1 WK POST CARCINOGEN TREATMENT (STUDY DURATION: 37 WK), Target Tissue: Type of Lesion: LIVER: CARCINOMA, Dose [Carcinogen]: 40 PPM IN DRINKING WATER FOR 5 WK): 89%, 32%, 64%, p<0.05
tumour outcome (control, treated, inhibition, significance) (Carcinogen: N-BUTYL-N-(4-HYDROXYBUTYL)NITROSAMINE, 3817-11-6, 500 PPM IN DIET FOR 8 WK BEGINNING 1 WK PRIOR TO CARCINOGEN TREATMENT (STUDY DURATION: 41 WK), Target Tissue: Type of Lesion: BLADDER: CARCINOMA, Dose [Carcinogen]: 0.05% IN DRINKING WATER FOR 6 WK): 17/22 (77%), 13/22 (59%), 23%, not significant
tumour outcome (control, treated, inhibition, significance) (Carcinogen: N-BUTYL-N-(4-HYDROXYBUTYL)NITROSAMINE, 3817-11-6, 500 PPM IN DIET FOR 8 WK BEGINNING 1 WK PRIOR TO CARCINOGEN TREATMENT (STUDY DURATION: 41 WK), Target Tissue: Type of Lesion: BLADDER: PAPILLOMA, Dose [Carcinogen]: 0.05% IN DRINKING WATER FOR 6 WK): 1/22 (5%), 3/22 (14%), -180%, not significant
tumour outcome (control, treated, inhibition, significance) (Carcinogen: N-BUTYL-N-(4-HYDROXYBUTYL)NITROSAMINE, 3817-11-6, 500 PPM IN DIET FOR 33 WK BEGINNING 1 WK POST CARCINOGEN TREATMENT (STUDY DURATION: 41 WK), Target Tissue: Type of Lesion: BLADDER: CARCINOMA, Dose [Carcinogen]: 0.05% IN DRINKING WATER FOR 6 WK): 17/22 (77%), 13/25 (52%), 32%, not significant
tumour outcome (control, treated, inhibition, significance) (Carcinogen: N-BUTYL-N-(4-HYDROXYBUTYL)NITROSAMINE, 3817-11-6, 500 PPM IN DIET FOR 33 WK BEGINNING 1 WK POST CARCINOGEN TREATMENT (STUDY DURATION: 41 WK), Target Tissue: Type of Lesion: BLADDER: PAPILLOMA, Dose [Carcinogen]: 0.05% IN DRINKING WATER FOR 6 WK): 1/22 (5%), 4/25 (16%), -220%, not significant
tumour outcome (control, treated, inhibition, significance) (Carcinogen: N-BUTYL-N-(4-HYDROXYBUTYL)NITROSAMINE, 3817-11-6, 1000 PPM IN DIET FOR 8 WK BEGINNING 1 WK PRIOR TO CARCINOGEN TREATMENT (STUDY DURATION: 41 WK), Target Tissue: Type of Lesion: BLADDER: CARCINOMA, Dose [Carcinogen]: 0.05% IN DRINKING WATER FOR 6 WK): 17/22 (77%), 9/22 (41%), 47%, p<0.03
tumour outcome (control, treated, inhibition, significance) (Carcinogen: N-BUTYL-N-(4-HYDROXYBUTYL)NITROSAMINE, 3817-11-6, 1000 PPM IN DIET FOR 8 WK BEGINNING 1 WK PRIOR TO CARCINOGEN TREATMENT (STUDY DURATION: 41 WK), Target Tissue: Type of Lesion: BLADDER: PAPILLOMA, Dose [Carcinogen]: 0.05% IN DRINKING WATER FOR 6 WK): 1/22 (5%), 0/22 (0%), 100%, not significant
tumour outcome (control, treated, inhibition, significance) (Carcinogen: N-BUTYL-N-(4-HYDROXYBUTYL)NITROSAMINE, 3817-11-6, 1000 PPM IN DIET FOR 33 WK BEGINNING 1 WK POST CARCINOGEN TREATMENT (STUDY DURATION: 41 WK), Target Tissue: Type of Lesion: BLADDER: CARCINOMA, Dose [Carcinogen]: 0.05% IN DRINKING WATER FOR 6 WK): 17/22 (77%), 12/25 (48%), 38%, p<0.05
tumour outcome (control, treated, inhibition, significance) (Carcinogen: N-BUTYL-N-(4-HYDROXYBUTYL)NITROSAMINE, 3817-11-6, 1000 PPM IN DIET FOR 33 WK BEGINNING 1 WK POST CARCINOGEN TREATMENT (STUDY DURATION: 41 WK), Target Tissue: Type of Lesion: BLADDER: PAPILLOMA, Dose [Carcinogen]: 0.05% IN DRINKING WATER FOR 6 WK): 1/22 (5%), 2/25 (8%), -60%, not significant
tumour outcome (control, treated, inhibition, significance) (Carcinogen: N-BUTYL-N-(4-HYDROXYBUTYL)NITROSAMINE, 3817-11-6, 2000 PPM IN DIET FOR 8 WK BEGINNING 1 WK PRIOR TO CARCINOGEN TREATMENT (STUDY DURATION: 41 WK), Target Tissue: Type of Lesion: BLADDER: CARCINOMA, Dose [Carcinogen]: 0.05% IN DRINKING WATER FOR 6 WK): 17/22 (77%), 8/25 (32%), 58%, p<0.005
tumour outcome (control, treated, inhibition, significance) (Carcinogen: N-BUTYL-N-(4-HYDROXYBUTYL)NITROSAMINE, 3817-11-6, 2000 PPM IN DIET FOR 8 WK BEGINNING 1 WK PRIOR TO CARCINOGEN TREATMENT (STUDY DURATION: 41 WK), Target Tissue: Type of Lesion: BLADDER: PAPILLOMA, Dose [Carcinogen]: 0.05% IN DRINKING WATER FOR 6 WK): 1/22 (5%), 3/25 (12%), -140%, not significant
